How the values were obtained:
Test in all cases: relative viability (nuclei count vs DMSO), 5 days (fraction); higher = more cells survive
ALW-II-49-7 + Pictilisib = compound: Cc1ccc(C(=O)Nc2cccc(C(F)(F)F)c2)cc1Nc1cncc(C(N)=O)c1 [ALW-II-49-7] + CS(=O)(=O)N1CCN(Cc2cc3nc(-c4cccc5[nH]ncc45)nc(N4CCOCC4)c3s2)CC1 [Pictilisib] (partner 1 µM)
Outline: (§1)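 Lung cancer cell lines were pin-tool dosed in 1536-well plates on the day after seeding, with either a lone drug or a fixed anchor-drug dose plus five library-drug doses (not always all listed) in √10 steps. Nuclei were counted on 4× images after 5 days. Relative viability is the ratio of treated-well to vehicle-well nuclei counts, with each value a median of duplicate plates.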

XMD13-2 + Crizotinib = compound: C1CC1C(=O)NC2=NNC3=C2C=CC(=C3)C4=CC(=CC=C4)C(=O)NC5CC5 [XMD13-2] + C[C@@H](Oc1cc(-c2cnn(C3CCNCC3)c2)cnc1N)c1c(Cl)ccc(F)c1Cl [Crizotinib] (partner 1 µM)
Outline: as §1

Dasatinib + Linsitinib = compound: Cc1nc(Nc2ncc(C(=O)Nc3c(C)cccc3Cl)s2)cc(N2CCN(CCO)CC2)n1 [Dasatinib] + C[C@]1(O)C[C@@H](c2nc(-c3ccc4ccc(-c5ccccc5)nc4c3)c3c(N)nccn32)C1 [Linsitinib] (partner 1 µM)
Outline: as §1

ALW-II-49-7 + AZD7762 = compound: Cc1ccc(C(=O)Nc2cccc(C(F)(F)F)c2)cc1Nc1cncc(C(N)=O)c1 [ALW-II-49-7] + NC(=O)Nc1cc(-c2cccc(F)c2)sc1C(=O)N[C@H]1CCCNC1 [AZD7762] (partner 0.2 µM)
Outline: as §1

Cell Line	relative viability (ALW-II-49-7 + Pictilisib; first compound 0.08 µM)	relative viability (ALW-II-49-7 + Pictilisib; first compound 0.253 µM)	relative viability (ALW-II-49-7 + Pictilisib; first compound 0.8 µM)	relative viability (ALW-II-49-7 + Pictilisib; first compound 2.53 µM)	relative viability (ALW-II-49-7 + Pictilisib; first compound 8 µM)	relative viability (XMD13-2 + Crizotinib; first compound 0.05 µM)	relative viability (XMD13-2 + Crizotinib; first compound 0.1581 µM)	relative viability (XMD13-2 + Crizotinib; first compound 0.5 µM)	relative viability (XMD13-2 + Crizotinib; first compound 1.581 µM)	relative viability (XMD13-2 + Crizotinib; first compound 5 µM)	relative viability (Dasatinib + Linsitinib; first compound 0.005 µM)	relative viability (Dasatinib + Linsitinib; first compound 0.01581 µM)	relative viability (Dasatinib + Linsitinib; first compound 0.05 µM)	relative viability (Dasatinib + Linsitinib; first compound 0.1581 µM)	relative viability (Dasatinib + Linsitinib; first compound 0.5 µM)	relative viability (ALW-II-49-7 + AZD7762; first compound 0.08 µM)	relative viability (ALW-II-49-7 + AZD7762; first compound 0.253 µM)	relative viability (ALW-II-49-7 + AZD7762; first compound 0.8 µM)	relative viability (ALW-II-49-7 + AZD7762; first compound 2.53 µM)	relative viability (ALW-II-49-7 + AZD7762; first compound 8 µM)
NCI-H727	0.511	0.415	0.267	0.432	0.292	0.938	0.697	1	0.771	0.687	0.233	0.249	0.262	0.13	0.152	0.495	0.68	0.611	0.716	0.591
NCI-H838	0.342	0.464	0.432	0.46	0.393	0.917	0.891	0.814	0.883	0.848	0.832	0.628	0.573	0.243	0.221	0.921	1.04	0.889	0.702	0.886
NCI-H1355	0.413	0.469	0.395	0.322	0.345	1.07	1.12	1.09	1.01	0.941	0.686	0.597	0.667	0.428	0.369	0.71	0.805	0.738	0.695	0.606
NCI-H1437	0.435	0.414	–	0.432	0.399	0.874	1.02	0.902	0.886	1.07	1.02	1.03	1.09	0.859	0.377	1.02	1.15	1.01	0.99	0.873
NCI-H1651	0.525	0.38	0.329	0.491	0.572	0.946	0.811	0.886	0.898	0.863	0.894	0.746	0.551	0.474	0.498	0.465	0.466	0.474	0.397	0.317
NCI-H1666	0.639	0.578	0.406	0.477	0.501	0.832	0.989	1.09	0.971	0.855	0.806	0.595	0.788	0.464	0.288	0.858	0.855	0.822	0.839	0.77
NCI-H1703	0.239	0.241	0.212	0.203	0.205	1.11	0.997	0.874	0.422	0.465	0.139	0.29	0.247	0.0903	0.144	0.124	0.132	0.116	–	0.127
NCI-H1734	0.491	0.42	0.491	0.48	0.499	0.91	0.655	0.66	0.594	0.474	0.678	0.693	0.64	0.394	0.331	0.588	0.562	0.544	0.483	0.55
NCI-H1755	0.377	0.531	0.421	0.352	0.307	0.982	0.85	0.861	0.856	0.922	0.795	0.743	0.642	0.391	0.171	0.543	0.497	0.379	0.432	0.382
NCI-H1792	0.232	0.21	0.215	0.183	0.258	1.22	0.929	0.979	0.869	1.12	0.491	0.355	0.377	0.219	0.0845	0.836	0.621	0.591	0.745	0.454
NCI-H1915	0.945	1.18	0.966	0.818	0.645	0.966	0.931	0.902	0.967	0.941	1.11	1.03	0.921	0.488	0.288	0.675	0.678	0.688	0.636	0.477
NCI-H1944	0.314	0.371	0.328	0.364	0.324	1.42	1.11	1.14	1.35	1.09	1.15	1.34	0.787	0.419	0.276	0.801	0.614	0.359	0.458	0.498
NCI-H1975	0.282	0.308	0.232	0.287	0.281	1.21	1.02	0.91	0.954	1.14	0.86	0.713	0.851	0.286	0.243	0.743	0.815	0.673	–	0.589
NCI-H1993	0.79	1.01	0.746	0.807	0.619	0.913	0.844	0.935	0.768	0.69	0.61	0.756	0.675	0.629	0.597	0.981	0.674	0.722	0.812	0.622
NCI-H2085	0.499	0.496	0.445	0.5	0.537	1.09	0.901	0.877	0.736	0.826	0.773	0.789	0.644	0.232	0.172	0.987	1.06	0.988	1.06	0.834
NCI-H2087	1.12	1.14	0.722	0.959	0.933	0.821	0.776	0.913	0.83	0.897	0.929	0.772	1.04	0.862	0.469	1.52	1.46	1.18	1.14	1.11
